Reference: ChEMBL document CHEMBL1201862, “PubChem BioAssay data set” (2004)
Calls of active or inactive are those of the source.

What was measured:
[1] = HepG2 cell cytotoxicity, dose response, cytotoxicity control for non-replicating M. tuberculosis project (AID 489018); assay type: functional; settings: Mycobacterium tuberculosis
[2] = THP-1 cell cytotoxicity, dose response, cytotoxicity control for non-replicating M. tuberculosis project (AID 489025); assay type: functional
Caspase-6 = biological target: T1, Caspase-6 (Homo sapiens, UniProt P55212); experiment: human caspase-6 inhibitors, dose response, biochemical, VEID-R110 fluorescence, cherry-pick (AID 720632)
T1 sequence (P55212 whole entry): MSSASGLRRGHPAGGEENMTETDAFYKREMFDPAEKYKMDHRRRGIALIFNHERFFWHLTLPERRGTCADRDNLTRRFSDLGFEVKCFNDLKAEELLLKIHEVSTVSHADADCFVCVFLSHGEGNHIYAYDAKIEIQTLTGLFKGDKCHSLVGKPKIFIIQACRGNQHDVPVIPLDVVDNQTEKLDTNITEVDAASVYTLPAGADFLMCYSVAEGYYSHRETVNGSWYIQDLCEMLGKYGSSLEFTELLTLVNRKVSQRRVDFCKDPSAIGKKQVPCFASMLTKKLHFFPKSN

Phospholipase A2 = Phospholipase A2 (Homo sapiens, UniProt P04054); assay type: functional;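 further: confirmatory dose-response counterscreen on phospholipase A2, testing hits that came from an ultra-high-throughput screen for ATG4B inhibitors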
Chain of Phospholipase A2 (P04054 whole entry): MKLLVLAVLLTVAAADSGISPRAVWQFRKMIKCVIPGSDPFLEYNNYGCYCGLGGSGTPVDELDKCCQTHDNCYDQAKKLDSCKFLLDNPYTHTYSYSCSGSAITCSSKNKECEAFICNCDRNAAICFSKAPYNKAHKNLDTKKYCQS

SMILES | CC50 [1] | CC50 [2] | AC50 (Caspase-6) | IC50 (Phospholipase A2)
COC(CNC(=O)c1ccc2c3c(onc13)-c1ccccc1C2=O)OC | 15.1 µM (active) | 7.86 µM (active) |  | 
COc1ccc(OC)c(Nc2cc3ccccc3c(O)n2)c1 |  |  | 2.44 µM (active) | 
Nc1ccc2c(c1)C(=O)C(=O)c1ccccc1-2 | 7.59 µM (active) | 2.74 µM (active) |  | 48.8 µM (inactive)
COc1cc(-c2ccc(Nc3ccccc3C(=O)O)c(OC)c2)ccc1Nc1ccccc1C(=O)O |  |  | 4.6 µM (active) | 
O=C(O)c1ccc(NC2=C/C(=N/S(=O)(=O)c3ccccc3)c3ccccc3C2=O)cc1 |  |  |  | 34.7 µM (inactive)
